Measured values published in paper PMC12508156, “Non-canonical dihydrolipoyl transacetylase promotes chemotherapy resistance via mitochondrial tetrahydrofolate signaling” (Nature Communications, 2025).

Legend:
GSH/GSSG = GSH/GSSG ratio (GSH/GSSG-Glo); assay type: cell-based, human
Procedure: (§1) Cellular metabolic states were examined through various assays. To gauge the levels of total intracellular or mitochondrial reactive oxygen species (ROS), cells were stained with CM-H2DCFDA or mitoSOX, respectively. Intracellular H2O2, NADPH, acetyl-CoA, and GSH/GSSG ratios were quantified using commercial assay kits as listed in the Reagents. Intracellular ATP levels were determined utilizing the ATP bioluminescent somatic cell assay and normalized to the total protein concentrations. The de novo synthesized RNA and proteins were assessed in cancer cells using commercial assays following the manufacturer’s protocols. In brief, O-propargyl-puromycin or uridine analog, 5-EU, was applied to stop translation or modify RNA. Polypeptides or modified RNA were measured using fluorescent azide with Ex/Em at 494/521 nm. PDC activity was determined by measuring the reduction of NAD+ to NADH during the conversion of pyruvate into acetyl-CoA.
Supplementary Fig. 2: GSH/GSSG ratio and NADPH level change upon DLAT knockdown and cisplatin treatment. A549cisR (a) and KB-3-1cisR (b) cells were transduced with control or […]
µg/ml; KB-3-1cisR: 5 µg/ml) for 24 h. The GSH/GSSG ratio and relative NADPH levels were measured using GSH/GSSG-Glo Assay and NADP/NADPH-Glo Assay, respectively. Error bars represent SD and are from 4 independent biological replicates for the upper panels of (a,b) and 3 for the lower panels of (a,b). P values were determined by one-way ANOVA.
(1 picture or pasted object on this page, not shown here)

cellular ROS = assay: Cellular ROS level (CM-H2DCFDA staining); assay type: cell-based, human
Procedure: as §1

N.N.[Cl][Pt][Cl] [cisplatin]
GSH/GSSG (GSH/GSSG; A549cisR cells, pLKO.1, n=2): 20.0066
GSH/GSSG (GSH/GSSG; A549cisR cells, shDLAT, n=3): 8.945
GSH/GSSG (GSH/GSSG; KB-3-1cisR cells, shDLAT, n=1): 6.046
GSH/GSSG (GSH/GSSG; KB-3-1cisR cells, shDLAT, n=2): 6.2227
ROS level (cellular ROS; A549cisR cells, pLKO.1, n=1): 0.9837
ROS level (cellular ROS; A549cisR cells, pLKO.1, n=2): 1.0031
ROS level (cellular ROS; A549cisR cells, pLKO.1, n=3): 1.0132
ROS level (cellular ROS; A549cisR, CTL, sheet Figure 5G, replicate n=1): 1.052
ROS level (cellular ROS; A549cisR, CTL, sheet Figure 5G, replicate n=2): 0.9938
ROS level (cellular ROS; A549cisR, CTL, sheet Figure 5G, replicate n=3): 0.9539
ROS level (cellular ROS; KB-3-1cisR cells, pLKO.1, n=1): 1.037
ROS level (cellular ROS; KB-3-1cisR cells, pLKO.1, n=2): 0.9651
ROS level (cellular ROS; KB-3-1cisR cells, pLKO.1, n=3): 0.9984
ROS level (cellular ROS; KB-3-1cisR cells, shDLAT, n=1): 2.065
ROS level (cellular ROS; KB-3-1cisR cells, shDLAT, n=2): 2.047
ROS level (cellular ROS; KB-3-1cisR, CTL, sheet Figure 5G, replicate n=1): 0.9879
ROS level (cellular ROS; KB-3-1cisR, CTL, sheet Figure 5G, replicate n=2): 1.001
ROS level (cellular ROS; KB-3-1cisR, CTL, sheet Figure 5G, replicate n=3): 1.011
ROS level (cellular ROS; KB-3-1cisR, shDLAT+Flag-MTHFD2 (K44Q), sheet Figure 5G, replicate n=1): 1.351
ROS level (cellular ROS; KB-3-1cisR, shDLAT+Flag-MTHFD2 (K44Q), sheet Figure 5G, replicate n=2): 1.32
